As a reminder, the IC50 is the concentration needed to halve the response being measured.

Data set [1] in a line: Cytotoxicity against African green monkey Vero cells assessed as reduction in cell viability incubated for 24 hrs by MTT assay. Format: toxicity, cell-based. The conditions noted are these: African green monkey (Chlorocebus sabaeus). For orientation: Tetrazolium dyes change colour on reduction, which living cells bring about.
The next data set deals with Plasmodium falciparum. Kind of data set: Antiplasmodial activity against Plasmodium falciparum W2 assessed as reduction in plasmodial growth after 48 hrs by fluorescence based analysis. The data set is classed as functional, organism-based. To be noted: W2, 48 h.

As to `O=C(CCN1C(=O)c2ccc(N3CCOCC3)cc2C1=O)NCCCCCCNc1ccnc2cc(Cl)ccc12`, the IC50 at 24 h in data set [1] is more than 178000 nM. For the same compound, the IC50 in the data set on Plasmodium falciparum was 640 nM.
Consider `O=C(CCN1C(=O)c2ccc(F)cc2C1=O)NCCNc1ccnc2cc(Cl)ccc12`, for which the 50% inhibitory concentration (IC50) at 24 h in data set [1] was 93200 nM. Besides, the IC50 in the data set on Plasmodium falciparum stood at 360 nM.
The matching figures for `CCN(CC)c1ccc2c(c1)C(=O)N(CCC(=O)NCCCCNc1ccnc3cc(Cl)ccc13)C2=O`: 84400 nM and 260 nM.
For `O=C(CCCN1C(=O)c2ccccc2C1=O)NCCNc1ccnc2cc(Cl)ccc12`, the IC50 at 24 h in data set [1] was more than 229000 nM. In addition, the IC50 with Plasmodium falciparum stood at 280 nM.
On the same counts, the results for `O=C(CN1C(=O)c2ccc(N3CCOCC3)cc2C1=O)NCCCCNc1ccnc2cc(Cl)ccc12` are more than 192000 nM and 1280 nM.
`O=C(CCN1C(=O)c2ccccc2C1=O)NCCCCCCNc1ccnc2cc(Cl)ccc12`: the half-maximal inhibitory concentration (IC50) at 24 h in data set [1] came out at 87500 nM. In addition, the half-inhibitory concentration (IC50) in the data set on Plasmodium falciparum came out at 290 nM.
Consider `CCN(CC)c1ccc2c(c1)C(=O)N(CC(=O)NCCNc1ccnc3cc(Cl)ccc13)C2=O`, for which the IC50 at 24 h in data set [1] amounted to 44400 nM. The concentration for half-maximal inhibition (IC50) with Plasmodium falciparum worked out at 1140 nM.
The matching figures for `O=C(CCN1C(=O)c2ccccc2C1=O)NCCCCNc1ccnc2cc(Cl)ccc12`: more than 222000 nM and 410 nM.
On the same counts, the results for `O=C(CCN1C(=O)c2ccccc2C1=O)NCCNc1ccnc2cc(Cl)ccc12` are more than 237000 nM and 300 nM.
The matching figures for `CCN(CC)c1ccc2c(c1)C(=O)N(CCC(=O)NCCCCCCNc1ccnc3cc(Cl)ccc13)C2=O`: more than 182000 nM and 530 nM.
`O=C(CN1C(=O)c2ccc(F)cc2C1=O)NCCCCNc1ccnc2cc(Cl)ccc12`: the IC50 at 24 h in data set [1] is more than 220000 nM. In addition, the IC50 with Plasmodium falciparum worked out at 1050 nM.
On the same counts, the results for `O=C(CN1C(=O)c2ccccc2C1=O)NCCNc1ccnc2cc(Cl)ccc12` are more than 245000 nM and 5650 nM.
On the same counts, the results for `O=C(CN1C(=O)c2ccc(N3CCN(CCO)CC3)cc2C1=O)NCCCCNc1ccnc2cc(Cl)ccc12` are more than 177000 nM and 860 nM.
In the case of `CCN(CC)c1ccc2c(c1)C(=O)N(CCC(=O)NCCNc1ccnc3cc(Cl)ccc13)C2=O`, in data set [1], the IC50 at 24 h stood at 203000 nM.
With `O=C(CCCN1C(=O)c2ccccc2C1=O)NCCCCCCNc1ccnc2cc(Cl)ccc12`, in data set [1], the IC50 at 24 h was more than 203000 nM. Moreover, the IC50 with Plasmodium falciparum stood at 1570 nM.
Consider `O=C(CN1C(=O)c2ccccc2C1=O)NCCCCCCNc1ccnc2cc(Cl)ccc12`, for which the IC50 at 24 h in data set [1] was found to be 248000 nM. The IC50 with Plasmodium falciparum amounted to 3350 nM.
Take `O=C(CCN1C(=O)c2ccc(N3CCOCC3)cc2C1=O)NCCCCNc1ccnc2cc(Cl)ccc12`: in data set [1], the IC50 at 24 h is 136000 nM. Further, the IC50 with Plasmodium falciparum is 220 nM.
Consider `O=C(CN1C(=O)c2ccccc2C1=O)NCCCCNc1ccnc2cc(Cl)ccc12`, for which, in data set [1], the IC50 at 24 h was more than 229000 nM. The IC50 in the data set on Plasmodium falciparum is 3660 nM.
On the same counts, the results for `O=C(CN1C(=O)c2ccc(N3CCOCC3)cc2C1=O)NCCCCCCNc1ccnc2cc(Cl)ccc12` are 20200 nM and 1780 nM.
The matching figures for `O=C(CN1C(=O)c2ccc(F)cc2C1=O)NCCCCCCNc1ccnc2cc(Cl)ccc12`: more than 207000 nM and 1490 nM.
The matching figures for `O=C(CCCN1C(=O)c2ccccc2C1=O)NCCCCNc1ccnc2cc(Cl)ccc12`: more than 215000 nM and 840 nM.
Regarding `O=C(CCN1C(=O)c2ccc(N3CCN(CCO)CC3)cc2C1=O)NCCNc1ccnc2cc(Cl)ccc12`, the IC50 in the data set with Plasmodium falciparum is 280 nM.
For the compound `O=C(CCN1C(=O)c2ccc(N3CCN(CCO)CC3)cc2C1=O)NCCCCNc1ccnc2cc(Cl)ccc12`, the IC50 at 24 h in data set [1] came to 169000 nM. Also, in the data set on Plasmodium falciparum, the IC50 was 140 nM.
The matching figures for `O=C(CCN1C(=O)c2ccc(F)cc2C1=O)NCCCCNc1ccnc2cc(Cl)ccc12`: 110000 nM and 220 nM.
`O=C(CCN1C(=O)c2ccc(N3CCN(CCO)CC3)cc2C1=O)NCCCCCCNc1ccnc2cc(Cl)ccc12`: in data set [1], the IC50 at 24 h was more than 165000 nM. In addition, the IC50 in the data set with Plasmodium falciparum is 180 nM.
